Like-named read-outs stand apart in the source and are kept apart here.
Columns and labels:
E coli = settings: at a pH of 7; cited from earlier work
E. coli [1] = experiment: Toxic / inhibitory effect of substrate, products and organic phase on biomass growth of the cells; settings: in the aqueous phase
[2] = Partition coefficients in DOP/M9 (glucose) biphasic system; format: physicochemical
E. coli [3] = test system: E. coli
[4] = concentration in organic phase (dioctyl phthalate) relative to aqueous phase (M9 medium, glucose), triplicate

For `CC(=O)O` [acetic acid], the “concentration with inhibitory effect on cell growth” value (E coli) is listed as 5000 µg/mL.

With pseudocumene (trimethylbenzene) the “concentration above which it is toxic to the cells” value (E. coli [1]) was 15-25% and the Partition coefficient [2, 4] was 24300 ± 1500.

With `Cc1ccc(C(=O)O)cc1C` [3,4-Dimethylbenzoic acid, 3,4-dimethylbenzoic acid] the “concentration which inhibits biomass growth” value (E. coli [3]) was 16000 µM and the Partition coefficient [2] was 0.188 ± 0.005.

In the case of `Cc1ccc(CO)cc1C` [3,4-Dimethylbenzyl alcohol, 3,4-dimethylbenzyl alcohol], the “concentration above which it has a toxic effect on the cells” value (E. coli [1]) is reported as greater than 100000 µM, the “concentration which inhibits biomass growth” value (E. coli [1]) is reported as 100000 µM and the Partition coefficient [2, 4] is reported as 50 ± 3.

With `Cc1ccc(C=O)cc1C` [3,4-Dimethylbenzaldehyde, 3,4-dimethylbenzaldehyde] the “concentration which inhibits biomass growth” value (E. coli [1]) was 1.812e+06 µM and the Partition coefficient [2, 4] was 906 ± 20.
